US20100286069A1, “CATIONIC PEPTIDE FOR DELIVERING AN AGENT INTO A CELL” (priority 2007, published 2010)
Entries after “also recorded” stand apart in the source; their conditions may differ. Where no end group is shown, it is not given here.

What was measured:
pDNA = assay: Gel retardation assay (Example 2); type: binding; details: PBS; N/P 1 to 10
Description: Complex formation of peptide amphiphiles with DNA: Complexes were formed at different N/P ratios by directly mixing equal volume of peptide and plasmid DNA (pDNA) solutions to achieve the intended N/P ratio, which measured the relative molar content of nitrogen atoms (N) in each peptide molecule to that of the phosphate groups (P) in each pDNA molecule, and was calculated based on the standardized 3 μgDNA/nmole DNA rule of thumb as described previously (31). To allow for complete electrostatic interaction between peptide and pDNA molecules, the solution was equilibrated at room temperature for 30 minutes upon mixing before being used for further studies.
Gel retardation assay: Various formulations of AK27/pDNA and AK32/pDNA complexes, ranging from N/P ratios of 1 to 10, were prepared in PBS. Post-equilibration, the complexes were electrophoresed on 1% agarose gel (stained with 4 μL of 0.5 μg/ml ethidium bromide per 50 mL of gel) in 0.5×TBE buffer at 80 V for 60 minutes. The gel was then analysed on a UV illuminator (Chemi Genius, Evolve, Singapore) to show the position of the complexed pDNA relative to that of the non-complexed form.
DNA binding: Gel retardation assays of the two peptide-based amphiphiles were performed to qualitatively study the electrostatic interaction between the peptide and pDNA.

[1] = system: HEK293, HepG2 and 4T1 cell lines; assay: In vitro luciferase gene expression, three cell lines (Example 2); type: cell-based, human, mouse; details: for luciferase gene expression level compared with PEI at N/P 10: general, three cell lines
Description: (§1) Cell culture: Both HEK293 and HepG2 cell lines were cultured in high glucose DMEM medium supplemented with 10% fetal bovine serum (FBS), 100 μg/mL penicillin, and 100 μg/mL streptomycin at 37° C. in a humidified 5% carbon dioxide incubator. 4T1 cell line was also cultured with the same condition as the other cell lines, but in RPMI 1640 growth medium supplemented with 10 mM HEPES.
In vitro gene expression: HEK293, HepG2, and 4T1 cells were seeded onto 24-well plates at 80,000, 80,000 and 50,000 cells/well, respectively, using the same growth medium and conditions as described previously. After one day, the cells achieved about 70-80% confluence, at which transfection experiments were performed. Briefly, peptide/pDNA complexes were prepared at N/P 1, 10, 20, 30, 35, 40, 45 and 50, and different pH in either sodium acetate buffer (pH 5) or phosphate buffer (pH 6.5 and 7.4). The transfection pH was firstly optimized using HEK293 cell lines and AK27 peptide. […] The total amount of DNA loaded was kept constant at 2.5 μg/well. Cells were allowed to incubate with serum and antibiotics-supplemented growth medium (500 μL/well), onto which the complex solutions (50 μL/well) were added. After four hours following the incubation with the complexes, the medium was then replaced with the fresh one. After 68 hours, the culture medium was removed, and the cells were washed with 0.5 mL of PBS (pH 7.4). 0.2 mL of reporter lysis buffer (Promega, Madison, Wis.) was then added to each well to lyse the cells. The cell suspension was next subjected to two cycles of freezing and thawing, and was centrifuged at 14,000 rpm for 5 minutes. 20 μL of the supernatant of the cell lysate was mixed with 100 μL of luciferase substrate (Promega). The relative light units (RLU) were measured using a luminometer (Lumat LB9507, Berthold, Germany). The luciferase activity was normalized to protein content using the BCA protein assay (Sigma). In all these experiments, both naked DNA-transfected cells and PEI-transfected cells were used as negative and positive controls, respectively. […]

[2] = Zeta potential measurement (Example 2); type: physicochemical; details: N/P ratio 40; phosphate buffer pH 6.5
Description: Particle size and Zeta potential measurement: The particle size and zeta potential of the complexes were measured by dynamic light scattering (Brookhaven Instrument Corp., Holtsville, N.Y., U.S.A.) and using Zetasizer (Malvern Instrument Ltd., Worchestershire, UK), respectively. Briefly, AK27/pDNA and AK32/pDNA complexes were formed in phosphate buffer (pH 6.5) at room temperature at different N/P ratios (i.e. 1, 10, 20, 30 and 40). All the particle size measurements were performed with a light source of 677 nm wavelength and 15° constant angle. The particle size measurement was repeated for 5 runs for each sample, and the data was reported as the effective mean diameter. The zeta potential measurement was repeated for 3 runs per samples, and the data was calculated automatically using the software from the electrophoretic mobility based on the Smoluchowski's formula.

[3] = MTT cytotoxicity assay in three cell lines (Example 2); type: cell-based, human, mouse; details: HEK293, HepG2 and 4T1 cells; blank nanoparticles and pDNA complexes, even at higher N/P ratios
Description: as §1
Cytotoxicity assay: The cytotoxicity of AK27, AK32, AK27/pDNA and AK32/pDNA complexes were all measured using the standard MTT assay protocol. Briefly, HEK293, HepG2 and 4T1 cell lines were seeded onto 96-well plates at 10,000 cells/well, 8,000 cells/well, and 6,000 cells/well seeding density, respectively. Post cell-seeding, the cells were incubated for one day before being used for cytotoxicity assay. For cytotoxicity assay with AK27/pDNA, complexes at N/P ratios of 1, 10, 20, 30, 35, 40, 45 and 50 were prepared in phosphate buffer (pH 6.5) as described earlier. […] After homogenizing the solution, 100 μL of the samples was spectrophotometrically read in a microplate reader (Biorad) at 550 nm and 690 nm wavelength. The relative cell viability was measured as ([Abs550]sample−[Abs690]sample)/([Abs550]control−[Abs690]control)×100%.

HEK293 cell line = assay: In vitro luciferase gene expression in HEK293 (Example 2); type: cell-based, human
Description: as §1
(§2) In vitro gene expression: HEK293, HepG2, and 4T1 cells were seeded onto 24-well plates at 80,000, 80,000 and 50,000 cells/well, respectively, using the same growth medium and conditions as described previously. After one day, the cells achieved about 70-80% confluence, at which transfection experiments were performed. Briefly, peptide/pDNA complexes were prepared at N/P 1, 10, 20, 30, 35, 40, 45 and 50, and different pH in either sodium acetate buffer (pH 5) or phosphate buffer (pH 6.5 and 7.4). The transfection pH was firstly optimized using HEK293 cell lines and AK27 peptide. […] The total amount of DNA loaded was kept constant at 2.5 μg/well. Cells were allowed to incubate with serum and antibiotics-supplemented growth medium (500 μL/well), onto which the complex solutions (50 μL/well) were added. After four hours following the incubation with the complexes, the medium was then replaced with the fresh one. […] The relative light units (RLU) were measured using a luminometer (Lumat LB9507, Berthold, Germany). […]

[4] = Critical micelle concentration (CMC) measurement with pyrene; type: physicochemical; details: PBS (pH 7.4)
Description: Critical micelle concentration (CMC) measurement: The CMC of the peptide amphiphile was measured using pyrene as the probe fluorescence molecule. A series of peptide solutions was prepared at various concentrations (0.01 to 2000 mg/L) in PBS. When excited at 337 nm wavelength, the electrons in the pyrene molecules absorb energy, and in turn, emit photons at wavelengths between 350-450 nm, as indicated by five emission peaks in the pyrene fluorescence spectrum (30). At the concentration of amphiphile above its CMC, when the amphiphile forms core/shell structured nanoparticles having a hydrophobic core and a hydrophilic shell, the pyrene molecules aggregate and are solubilized into the core giving […] intensity of the third peak in the emission spectrum. Therefore, monitoring the intensity of the third peak of pyrene's emission spectra, usually normalized to the first peak's intensity, provides a means to estimate the transition concentration (i.e. CMC) of the amphiphile aggregation.
The inflection point gives an estimate of CMC of AK27 in PBS (pH 7.4), which was approximately 120 mg/L.

4T1 cell line = assay: In vitro luciferase gene expression in 4T1 (Example 2); type: cell-based, mouse; details: PEI N/P 10, pH 6.5
Description: as §1, §2

HepG2 cell line = assay: In vitro luciferase gene expression in HepG2 (Example 2); type: cell-based, human; details: PEI N/P 10, pH 6.5
Description: as §1, §2

Sequence | N/P ratio for complete retardation of DNA (pDNA) | highest luciferase expression level compared with PEI ([1]; at N/P ratio of 45, PEI N/P 10) | luciferase gene expression level compared with PEI at N/P 10 [1] | highest zeta potential of peptide/pDNA complexes [2] | viability at 4 h [3] [%] | optimum complexation pH for transfection (HEK293 cell line; pH 5, 6.5 and 7.4 tested) | CMC [4] | highest luciferase expression level compared with PEI (4T1 cell line) | highest luciferase expression level compared with PEI (HepG2 cell line) | highest luciferase expression level compared with PEI (HEK293 cell line; PEI N/P 10, pH 6.5)
AAAAAAAAAAAAHHHHHKKKKKKKKKK [AK27, (A)12(H)5(K)10] | 3 | about one order of magnitude lower | an order of magnitude less | approximately 7.8±1.1 mV | > 80 | around 6.5 | approximately 120 mg/L |  |  | 
AAAAAAAAAAAAHHHHHKKKKKKKKKKKKKKK [AK32, (A)12(H)5(K)15] | 2 |  | almost comparable | ~18.2±0.5 mV | > 80 |  |  | less than an order of magnitude lower | comparable to that provided by PEI; also recorded: comparable to that yielded by PEI | comparable to that provided by PEI; also recorded: comparable to that yielded by PEI
